Where “and” joins values, the source holds several entries; their conditions need not be identical. Equal values may be shown once. Inconclusive results and toxic doses are left out.
Tested on: BDF1 mice, P388 leukemia ip, median survival T/C
Assay: NCI In Vivo Anticancer Drug Screen. Data for tumor model P388 Leukemia (intraperitoneal) in B6D2F1 (BDF1) mice
Conditions: endpoint: median survival time, higher = longer survival
Procedure, shortened: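 Antitumour effect was judged in vivo: survival in drug-treated mice, normalised to that of vehicle-dosed controls, gives the reported T/C.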

[1] = dose: 50.0 mg/kg/injection, schedule: Q01DX009 (ip), vehicle: saline with Tween-80
[2] = dose: 100.0 mg/kg/injection, schedule: Q01DX009 (ip), vehicle: saline with Tween-80
[3] = dose: 100.0 mg/kg/injection, schedule: Q04DX003 (ip), vehicle: saline with Tween-80
[4] = dose: 200.0 mg/kg/injection, schedule: Q04DX003 (ip), vehicle: saline with Tween-80
[5] = dose: 400.0 mg/kg/injection, schedule: Q04DX003 (ip), vehicle: saline with Tween-80
[6] = dose: 200.0 mg/kg/injection, schedule: Q01DX009 (ip), vehicle: saline with Tween-80
[7] = dose: 12.5 mg/kg/injection, schedule: Q01DX009 (ip), vehicle: saline with Tween-80
[8] = dose: 25.0 mg/kg/injection, schedule: Q01DX009 (ip), vehicle: saline with Tween-80
[9] = dose: 50.0 mg/kg/injection, schedule: Q04DX003 (ip), vehicle: saline

CC1CN1P(=S)(N1CCCC1)N1CC1C (stereo unspecified)
T/C (dose: 17.8 mg/kg/injection, schedule: Q01DX009 (ip), vehicle: saline with Tween-80): 112 % of control
T/C (dose: 26.6 mg/kg/injection, schedule: Q01DX009 (ip), vehicle: saline with Tween-80): 114 % of control
T/C (dose: 40.0 mg/kg/injection, schedule: Q01DX009 (ip), vehicle: saline with Tween-80): 168 % of control
T/C [1]: 150 % of control
T/C (dose: 60.0 mg/kg/injection, schedule: Q01DX009 (ip), vehicle: saline with Tween-80): 214 % of control
T/C [2]: 170 % of control

O=C1c2sccc2-c2cccc3cccc1c23
T/C (dose: 50.0 mg/kg/injection, schedule: Q04DX003 (ip), vehicle: saline with Tween-80): 96 % of control
T/C [3]: 93 % of control
T/C [4]: 94 % of control
T/C [5]: 86 % of control

CN(C)c1ccc(/C=C/c2ccnc3ccccc23)c(Cl)c1
T/C [1]: 102 % of control
T/C [2]: 96 % of control
T/C [6]: 88 % of control

CCOC(=O)/C=C\CBr
T/C (dose: 1.5 mg/kg/injection, schedule: Q01DX010 (ip), vehicle: saline): 100 % of control
T/C (dose: 3.0 mg/kg/injection, schedule: Q01DX010 (ip), vehicle: saline): 100 % of control
T/C (dose: 6.0 mg/kg/injection, schedule: Q01DX010 (ip), vehicle: saline): 105 % of control
T/C (dose: 12.0 mg/kg/injection, schedule: Q01DX010 (ip), vehicle: saline): 100 % of control and 115 % of control
T/C (dose: 24.0 mg/kg/injection, schedule: Q01DX010 (ip), vehicle: saline): 100 % of control
T/C (dose: 48.0 mg/kg/injection, schedule: Q01DX010 (ip), vehicle: saline): 120 % of control

COc1cccc(S(=O)(=O)c2ccc([N+](=O)[O-])c3nonc23)c1
T/C [7]: 111 % of control
T/C [8]: 111 % of control

CC[n+]1ccc(Nc2ccc(NC(=O)c3ccc(Nc4cc[n+](CC)c5ccc([N+](=O)[O-])cc45)cc3)cc2)cc1
T/C (dose: 0.44 mg/kg/injection, schedule: Q04DX003 (ip), vehicle: saline): 111 % of control
T/C (dose: 0.66 mg/kg/injection, schedule: Q04DX003 (ip), vehicle: saline): 116 % of control
T/C (dose: 1.0 mg/kg/injection, schedule: Q04DX003 (ip), vehicle: saline): 100 % of control
T/C (dose: 1.5 mg/kg/injection, schedule: Q04DX003 (ip), vehicle: saline): 110 % of control
T/C (dose: 4.0 mg/kg/injection, schedule: Q04DX003 (ip), vehicle: saline): 150 % of control
T/C (dose: 6.0 mg/kg/injection, schedule: Q04DX003 (ip), vehicle: saline): 150 % of control
T/C (dose: 22.0 mg/kg/injection, schedule: Q04DX003 (ip), vehicle: saline): 152 % of control
T/C (dose: 33.0 mg/kg/injection, schedule: Q04DX003 (ip), vehicle: saline): 180 % of control
T/C [9]: 186 % of control

Cc1cc(N(CCCl)CCCl)ccc1N=Nc1ccccc1C(=O)O
T/C (dose: 5.0 mg/kg/injection, schedule: Q01DX010 (ip), vehicle: saline): 150 % of control
T/C (dose: 10.0 mg/kg/injection, schedule: Q01DX010 (ip), vehicle: saline): 175 % of control
T/C (dose: 20.0 mg/kg/injection, schedule: Q01DX010 (ip), vehicle: saline): 210 % of control
T/C (dose: 40.0 mg/kg/injection, schedule: Q01DX010 (ip), vehicle: saline): 95 % of control

Cc1cc(Cl)c(C)c(Cl)c1Cl
T/C [2]: 90 % of control
T/C [6]: 95 % of control
T/C (dose: 400.0 mg/kg/injection, schedule: Q01DX009 (ip), vehicle: saline with Tween-80): 86 % of control

[Cl][Co][Cl].[NH-]CCN1CC1
T/C (dose: 25.0 mg/kg/injection, schedule: Q04DX003 (ip), vehicle: saline): 103 % of control
T/C [9]: 107 % of control
T/C (dose: 100.0 mg/kg/injection, schedule: Q04DX003 (ip), vehicle: saline): 103 % of control

CCSc1ncnc2c1ncn2CN1CCOCC1
T/C [8]: 86 % of control
T/C [1]: 95 % of control
T/C [2]: 168 % of control
T/C (dose: 150.0 mg/kg/injection, schedule: Q01DX009 (ip), vehicle: saline): 100 % of control
T/C (dose: 330.0 mg/kg/injection, schedule: Q01DX009 (ip), vehicle: saline): 110 % of control

Nc1ncnc2c1nnn2C1OC(CO)C(O)C1O (stereo unspecified)
T/C (dose: 10.0 mg/kg/injection, schedule: Q01DX009 (ip), vehicle: Klucel (hydroxypropylcellulose) (HPC)): 150 % of control
T/C (dose: 15.0 mg/kg/injection, schedule: Q01DX009 (ip), vehicle: Klucel (hydroxypropylcellulose) (HPC)): 160 % of control
T/C (dose: 18.0 mg/kg/injection, schedule: Q01DX009 (ip), vehicle: Klucel (hydroxypropylcellulose) (HPC)): 161 % of control
T/C (dose: 24.0 mg/kg/injection, schedule: Q01DX009 (ip), vehicle: Klucel (hydroxypropylcellulose) (HPC)): 96 % of control
T/C (dose: 27.0 mg/kg/injection, schedule: Q01DX009 (ip), vehicle: Klucel (hydroxypropylcellulose) (HPC)): 170 % of control
T/C (dose: 28.0 mg/kg/injection, schedule: Q01DX009 (ip), vehicle: Klucel (hydroxypropylcellulose) (HPC)): 170 % of control
T/C (dose: 35.0 mg/kg/injection, schedule: Q01DX009 (ip), vehicle: Klucel (hydroxypropylcellulose) (HPC)): 99 % of control
T/C (dose: 40.0 mg/kg/injection, schedule: Q01DX009 (ip), vehicle: Klucel (hydroxypropylcellulose) (HPC)): 104 % of control
T/C (dose: 42.0 mg/kg/injection, schedule: Q01DX009 (ip), vehicle: Klucel (hydroxypropylcellulose) (HPC)): 170 % of control
T/C (dose: 53.0 mg/kg/injection, schedule: Q01DX009 (ip), vehicle: Klucel (hydroxypropylcellulose) (HPC)): 107 % of control
T/C (dose: 60.0 mg/kg/injection, schedule: Q01DX009 (ip), vehicle: Klucel (hydroxypropylcellulose) (HPC)): 91 % of control
T/C (dose: 63.0 mg/kg/injection, schedule: Q01DX009 (ip), vehicle: Klucel (hydroxypropylcellulose) (HPC)): 115 % of control
T/C (dose: 79.0 mg/kg/injection, schedule: Q01DX009 (ip), vehicle: Klucel (hydroxypropylcellulose) (HPC)): 102 % of control

O=C(/C=C/c1ccc(O)cc1)c1ccccc1
T/C [3]: 118 % of control
T/C [4]: 168 % of control
T/C [5]: 113 % of control

CC1OC(OC2CCCc3ccccc32)CC(N)C1O (stereo unspecified)
T/C (dose: 0.25 mg/kg/injection, schedule: Q01DX009 (ip), vehicle: water): 91 % of control and 94 % of control
T/C (dose: 0.5 mg/kg/injection, schedule: Q01DX009 (ip), vehicle: water): 101 % of control and 115 % of control and 103 % of control
T/C (dose: 1.0 mg/kg/injection, schedule: Q01DX009 (ip), vehicle: water): 110 % of control [middle of 4 runs]
T/C (dose: 2.0 mg/kg/injection, schedule: Q01DX009 (ip), vehicle: water): 101 % of control and 102 % of control and 105 % of control
T/C (dose: 4.0 mg/kg/injection, schedule: Q01DX009 (ip), vehicle: water): 109 % of control [middle of 5 runs]
T/C (dose: 8.0 mg/kg/injection, schedule: Q01DX009 (ip), vehicle: water): 106 % of control and 111 % of control
T/C (dose: 16.0 mg/kg/injection, schedule: Q01DX009 (ip), vehicle: water): 98 % of control and 108 % of control
T/C (dose: 32.0 mg/kg/injection, schedule: Q01DX009 (ip), vehicle: water): 121 % of control

Cn1c(=O)c2c(c3ccccc31)Oc1oc3ccc4ccccc4c3c(=O)c1C2
T/C [1]: 91 % of control
T/C [6]: 94 % of control

NC(=S)N/N=C\c1nccc2c(N)cccc12
T/C (dose: 6.25 mg/kg/injection, schedule: Q01DX009 (ip), vehicle: saline with Tween-80): 186 % of control
T/C [7]: 191 % of control
T/C [8]: 195 % of control
T/C [1]: 91 % of control
T/C (dose: 75.0 mg/kg/injection, schedule: Q01DX009 (ip), vehicle: saline with Tween-80): 89 % of control

NC(=O)/C=C/C(=O)O
T/C (dose: 25.0 mg/kg/injection, schedule: Q01DX009 (ip), vehicle: saline): 101 % of control
T/C (dose: 50.0 mg/kg/injection, schedule: Q01DX009 (ip), vehicle: saline): 93 % of control
T/C (dose: 100.0 mg/kg/injection, schedule: Q01DX009 (ip), vehicle: saline): 103 % of control
T/C (dose: 200.0 mg/kg/injection, schedule: Q01DX009 (ip), vehicle: saline): 101 % of control

COc1cc(OC)c(Br)c(OC)c1
T/C (dose: 100.0 mg/kg/injection, schedule: Q01DX009 (ip), vehicle: Klucel (hydroxypropylcellulose) (HPC)): 100 % of control
T/C (dose: 100.0 mg/kg/injection, schedule: Q04DX003 (ip), vehicle: Klucel (hydroxypropylcellulose) (HPC)): 112 % of control
T/C (dose: 200.0 mg/kg/injection, schedule: Q01DX009 (ip), vehicle: Klucel (hydroxypropylcellulose) (HPC)): 100 % of control
T/C (dose: 200.0 mg/kg/injection, schedule: Q04DX003 (ip), vehicle: Klucel (hydroxypropylcellulose) (HPC)): 104 % of control
T/C (dose: 400.0 mg/kg/injection, schedule: Q01DX009 (ip), vehicle: Klucel (hydroxypropylcellulose) (HPC)): 116 % of control
T/C (dose: 400.0 mg/kg/injection, schedule: Q04DX003 (ip), vehicle: Klucel (hydroxypropylcellulose) (HPC)): 100 % of control

— PubChem BioAssay AID328 (DTP/NCI, 2004)
